Measured values taken from patent US5434159A, “6,11-cyclyl-1,2,3,4,5,6,11,11a-octahydrobenzo[b]quinolines and compositions and method of use thereof” (Sterling Winthrop Inc., priority 1994, dated 1995).
Structures can show the parent of a compound that is named as a salt.

Assays:
[1] = system: NMDA-induced neurotoxicity in cultured cortical neurons; experiment: Antagonism of NMDA-induced Neurotoxicity in Cultured Neurons (LDH activity); format: cell-based, Swiss-Webster mice; details: 500 μM NMDA for 30 minutes, LDH 24 hours after removal, day 13 cultured cortical neurons
Procedure: Antagonism of NMDA-induced Neurotoxicity in Cultured Neurons
Preparation of cultured cortical neurons
Pregnant, Swiss-Webster mice were obtained from Taconic 0 Farms (Germantown, N.Y.) and sacrificed 16 days post conception. Fetuses were removed and placed in a sterile dish containing Hank's balanced salt solution (HBSS), pH 7.4. Brain cortices were dissected, meninges were removed, the tissue was minced and placed into a solution of HBSS containing 0.25% (w/v) trypsin at 37° C. for 15 minutes. Tissue was then triturated with a sterile pasteur pipet, diluted with minimal essential media (Gibco 330-1430), pH 7.4, supplemented with 10% horse serum, 10% fetal calf serum, 2 mM l-glutamine, 21 mM d-glucose, 2.2 g/L sodium bicarbonate, 1000 U/ml penicillin, and 1,000 μg/ml streptomycin. Cells were plated onto Falcon primaria 96 well plates at a final density of 50,000 cells/well and incubated at 37° C. in the presence of 5% (v/v) carbon dioxide. After 5 days, plating media was replaced with maintenance media containing minimal essential media (Gibco 330-1430), pH 7.4, supplemented with 10% horse serum, […], 21 mM d-glucose, 2.2 g/l sodium bicarbonate, 1,000 U/ml penicillin, 1,000 μg/ml streptomycin, and 10 μM cytosine arabinoside. On days 7 and 10, media was replaced with maintenance media as above lacking the cytosine arabinoside. Experiments were conducted on day 13.
Neuroprotection Assessment
Day 13 cultured cortical neurons were washed twice with minimal essential media, pH 7.4 and then exposed for 30 minutes to 500 μM N-methyl-D-aspartic acid (NMDA) with or without varying concentrations of test agents. Dizocilpine (MK-801) at a final concentration of 10 μM MK-801 was routinely included as a positive control. MK-801 and test agents were prepared in minimal essential media supplemented with 21 mM d-glucose and 2.2 g/L sodium bicarbonate (MEM). After 30 minutes, media was replaced with MEM alone. Exposure of neurons to test agents was limited to the NMDA treatment period. […]

[2] = target: PCP recognition sites (PCP receptor); experiment: [^3 H]TCP Radioreceptor Assay (internal screen); format: binding; details: whole rat brain membranes, [^3 H]TCP approx. 1 nM, room temperature 25 min; mean of at least two separate determinations
Procedure: [^3 H]TCP Radioreceptor Assay (internal screen)
[^3 H]TCP binding to PCP recognition sites was performed as described by Vignon et al. Brain Research 1983, 280, 194-197. Male Spmgue-Dawley rats were sacrificed by decapitation, and whole brains were homogenized in 10 volumes (wt/vol) of cold Tris-HCl buffer (50 mM, pH 7.7) using a Brinkmann Polytron (setting 6, 30 sec). The homogenate was centrifuged at 40,000×g for 10 min at 4° C. The supernatant was decanted, and the homogenization and centrifugation steps were repeated twice as described above. Following this, the pellet was resuspended in Tris-HCl (5 mM, pH 7.7) at a tissue concentration of 0.5-0.75 g/ml, and one ml aliquots were frozen at -70° C. unto use. The binding characteristics for PCP recognition sites were not altered by the freezing of membrane suspensions.
On the day of the assay, membrane aliquots were thawed, resuspended in fresh 5 mM Tris-HCl buffer at a tissue concentration of 1 mg/ml, and stored on ice until use. Each assay tube contained 100 μl of [^3 H]TCP at a final concentration of approximately 1 nM, 100 μl of various concentrations of the compounds of interest, 500 μl of the tissue suspension and 300 μ of buffer to a final assay volume of 1 ml and a final protein concentration of 0.5 mg/tube. Non-specific binding was defined by addition of a final concentration of 100 μM PCP to blank tubes. All tubes were incubated at room temperature for 25 min before termination of the reaction by rapid filtration over Whatman GF/B glass fiber filters that had been presoaked in a solution of 0.5% polyethyleneimine for at least 1 hr prior to use. Filters were washed with three 4 ml volumes of cold Tris buffer. Following addition of scintillation cocktail, the amount of bound radioactivity was determined by liquid scintillation spectrometry using a Beckman LS 5000 TA liquid scintillation counter with an efficiency for tritium of approximately 55%. Inhibition constants (Ki values) were calculated using the EBDA/LIGAND program (McPherson, J. Pharmacol. Meth. 1985, 14, 213-228), purchased from Elsevier/Biosoft, Inc. Results are reported as Ki values which are expressed as the mean of at least two separate determinations.

[3] = system: PCP recognition sites (PCP receptor); experiment: [^3 H]TCP Radioreceptor Assay (external screen); format: binding; details: @10 μM; whole rat forebrain membranes, 25° C., 60 minutes
Procedure: Representative compounds of the invention were also tested in an external [^3 H]TCP radioreceptor assay using the following protocol:
[^3 H]TCP Radioreceptor Assay (external screen)
A procedure similar to that described above for the [^3 H]TCP radioreceptor assay (internal screen) was utilized except that the whole rat forebrain membranes were incubated at 25° C. for 60 minutes rather than at room temperature for 25 minutes, before termination of the reaction. The results are reported as a percent (%) inhibition of binding at 10 μM.

Compound	Ki [2] [nM]	further results
6,11 [2',3']tetrahydrofuranyl-1,2,3,4,5,6,11,11a-octahydrobenzo [b]quinolizine hydrobromide [Example 8]	606	IC50 [1]: 12200 nM
6,11 [2',3']tetrahydropyranyl-1,2,3,4,5,6,11,11a-octahydrobenzo[b]quinolizine hydrobromide [Example 7]	1420	–
c1ccc2c(c1)C1C3CCCCC3C2N2CCCCC12 (centres unmarked) [Example 1a, 6,11 [1',2']cyclohexyl-1,2,3,4,5,6,11:11a-octahydrobenzo[b]quinolizine]	134	–
c1ccc2c(c1)C1c3ccccc3C2N2CCCCC12 (centres unmarked) [Example 1b, 6,11 [1',2']benzeno-1,2,3,4,5,6,11,11a-octahydrobenzo[b]quinolizine]	333	–
CC12c3ccccc3C(C3CCCC31)N1CCCCC12 (centres unmarked) [Example 2, 11-methyl-6,11 [1',2']cyclopentyl-1,2,3,4,5,6,11,11a-octahydrobenzo[b]quinolizine]	40	–
Oc1ccc2c(c1)C1C3CCCC3C2C2CCCCN21 (centres unmarked) [Example 3b, 8-hydroxy-6,11 [1',2']cyclopentyl-1,2,3,4,5,6,11,11a-octahydrobenzo[b]quinolizine hydrobromide]	27.9	–
Brc1ccc2c(c1)C1C3CCCC3C2N2CCCCC12 (centres unmarked) [Example 4, 9-bromo-6,11 [1',2']cyclopentyl-1,2,3,4,5,6,11,11a-octahydrobenzo[b]quinolizine hydrobromide]	43.7	–
Fc1ccc2c(c1)C1C3CCCC3C2N2CCCCC12 (centres unmarked) [Example 5, 9-fluoro-6,11[1',2']cyclopentyl-1,2,3,4,5,6,11,11a-octahydrobenzo[b]quinolizine fumarate]	20	–
Nc1ccc2c(c1)C1C3CCCC3C2N2CCCCC12 (centres unmarked) [Example 6, 9-amino-6,11 [1',2']cyclopentyl-1,2,3,4,5,6,11,11a-octahydrobenzo[b]quinolizine]	11.8	–
c1ccc2c(c1)C1C3CCCC3C2N2CCCCC12 (centres unmarked) [Example 9a, 6,11 [1',2']cyclopentyl-1,2,3,4,5,6,11,11a-octahydrobenzo[b]quinolizine hydrobromide]	15.4	IC50 ([1]; Mus musculus, Cortical neurone): 100 nM; [^3 H]TCP (external screen) Percent inhibition [3]: 100%
Oc1ccc2c(c1)C1C3CCCC3C2N2CCCCC12 (centres unmarked) [Example 10b, 9-hydroxy-6:11 [1',2']cyclopentyl-1,2,3,4,5,6,11,11a-octahydrobenzo [b]quinolizine hydrobromide]	2.31	IC50 ([1]; Mus musculus, Cortical neurone): 42 nM
c1ccc2c(c1)C1C3CCCCC3C2N2CCCCC12 (centres unmarked) [Example 11, 6,11 [1',2']cyclohexyl-1,2,3,4,5,6,11,11a-octahydrobenzo[b]quinolizine]	219	–
Oc1cccc2c1C1C3CCCC3C2N2CCCCC12 (centres unmarked) [Example 12b, 10-hydroxy-6,11 [1',2']cyclopentyl-1,2,3,4,5,6,11,11a-octhydrobenzo[b]quinolizine hydrobromide]	2.29	–
CC12c3ccccc3C(C3CCCC31)C1CCCCN12 (centres unmarked) [Example 13, 6-methyl-6,11 [1',2']cyclopentyl-1,2,3,4,5,6,11,11a-octahydrobenzo [b]quinolizine]	8.87	–
[O-][N+]12CCCCC1C1c3ccccc3C2C2CCCC21 (centres unmarked) [Example 14, 6,11 [1',2']cyclopentyl-1,2,3,4,5,6,11,11a-octahydrobenzo[b]quinolizine-5-oxide]	33.1	–
C[N+]12CCCCC1C1c3ccccc3C2C2CCCC21 (centres unmarked) [Example 15, 5-methyl-6,11 [1',2']cyclopentyl-1,2,3,4,5,6,11,11a-octahydrobenzo[b]quinolizinium bromide]	22.3	–
